Patent US6730669B2, “Amino acid hydroxyethylamino sulfonamide retroviral protease inhibitors” (G. D. Searle & Co., priority 1995, dated 2004)
pEC50, pIC50: −log10 of the molar value.

Experiments:
HIV-1 = test: CEM cell assay: HIV inhibition assay of acutely infected cells (tetrazolium based colorimetric, MTT); conditions: Human immunodeficiency virus 1, CCRF-CEM, 168 h; Table 21; CEM cells acutely infected with HIV-1, 7 days, MTT readout
Method: The effectiveness of various compounds were determined in the above-described enzyme assay and in a CEM cell assay. The HIV inhibition assay method of acutely infected cells is an automated tetrazolium based colorimetric assay essentially that reported by Pauwles et al, J. Virol. Methods, 20, 309-321 (1988). Assays were performed in 96-well tissue culture plates. CEM cells, a CD4+cell line, were grown in RPMI-1640 medium (Gibco) supplemented with a 10% fetal calf serum and were then treated with polybrene (2 μg/ml). An 80 μl volume of medium containing 1×10^4 cells was dispensed into each well of the tissue culture plate. To each well was added a 100 μl volume of test compound dissolved in tissue culture medium (or medium without test compound as a control) to achieve the desired final concentration and the cells were incubated at 37° C. for 1 hour. A frozen culture of HIV-1 was diluted in culture medium to a concentration of 5×10^4 TCID50 per ml (TCID50=the dose of virus that infects 50% of cells in tissue culture), and a 20 μL volume of the virus sample (containing 1000 TCID50 of virus) was added to wells containing test compound and to wells containing only medium (infected control cells). Several wells received culture medium without virus (uninfected control cells). Likewise, the intrinsic toxicity of the test compound was determined by adding medium without virus to several wells containing test compound. In summary, the tissue culture plates contained the following experiments:
In experiments 2 and 4 the final concentrations of test compounds were 1, 10, 100 and 500 μg/ml. Either azidothymidine (AZT) or dideoxyinosine (ddI) was included as a positive drug control. […] DMSO was added to all control wells at an appropriate concentration.
Following the addition of virus, cells were incubated at 37° C. in a humidified, 5% CO2 atmosphere for 7 days. Test compounds could be added on days 0, 2 and 5 if desired. On day 7, post-infection, the cells in each well were resuspended and a 100 μl sample of each cell suspension was removed for assay. A 20 μL volume of a 5 mg/ml solution of 3-(4,5-dimethylthiazol-2-yl)-2,5-diphenyltetrazolium bromide (MTT) was added to each […] cell suspension, and the cells were incubated for 4 hours at […] in a 5% CO2 environment. […] To each sample was added 100 μl of 10% sodium dodecylsulfate in 0.01 N HCl to lyse the cells, and samples were incubated overnight. The absorbance at 590 nm was determined for each sample using a Molecular Devices microplate reader. Absorbance values for each set of wells is compared to assess viral control infection, uninfected control cell response as well as test compound by cytotoxicity and antiviral efficacy.

HIV protease = target: T1, HIV protease (Human immunodeficiency virus type 1 group M subtype B, UniProt P04585); test: HIV protease enzyme assay (fluorescence, substrate 2-Ile-Nle-Phe(p-NO2)-Gln-ArgNH2); type: biochemical; conditions: 12.3 nanomolar enzyme, pH 6.4
T1 construct: HIV protease is diluted in the assay buffer to a final enzyme concentration of 12.3 nanomolar, based on a molecular weight of 10,780
Method: The compounds of the present invention are effective HIV protease inhibitors. Utilizing an enzyme assay as described below, the compounds set forth in the examples herein disclosed inhibited the HIV enzyme. […] The enzyme method is described below. The substrate is 2-Ile-Nle-Phe(p-NO2)-Gln-ArgNH2. The positive control is MVT-101 (Miller, M. et al, Science, 246, 1149 (1989)] The assay conditions are as follows:
20 mM sodium phosphate, pH 6.4
The above described substrate is dissolved in DMSO, then diluted 10 fold in assay buffer. Final substrate concentration in the assay is 80 μM. HIV protease is diluted in the assay buffer to a final enzyme concentration of 12.3 nanomolar, based on a molecular weight of 10,780.
The final concentration of DMSO is 14% and the final concentration of glycerol is 18%. The test compound is dissolved in DMSO and diluted in DMSO to 10× the test concentration; 10 μl of the enzyme preparation is added, the materials mixed and then the mixture is incubated at ambient temperature for 15 minutes. The enzyme reaction is initiated by the addition of 40 μl of substrate. The increase in fluorescence is monitored at 4 time points (0, 8, 16 and 24 minutes) at ambient temperature. Each assay is carried out in duplicate wells.

| Structure (SMILES) | pEC50 (HIV-1) | pIC50 (HIV protease; Table 21, 80 μM substrate) | pIC50 (HIV protease; Table 20, 80 μM substrate) |
| --- | --- | --- | --- |
| CC(C)CN(C[C@@H](O)[C@H](Cc1ccccc1)NC(=O)[C@@H](NC(=O)CN1CCCC1)C(C)(C)C)S(=O)(=O)c1ccccc1 [Entry 4] | 7.92 | 8.40 |  |
| CC(C)CN(C[C@@H](O)[C@H](Cc1ccccc1)NC(=O)[C@@H](NC(=O)CN1CCCC1)C(C)C)S(=O)(=O)c1ccc2c(c1)OCO2 [Entry 6] | 8.22 | 8.52 |  |
| CCC(C)[C@H](NC(=O)CN1CCCC1)C(=O)N[C@@H](Cc1ccccc1)[C@H](O)CN(CC(C)C)S(=O)(=O)c1ccc2c(c1)OCO2 (stereo partly shown) [Entry 2] | 7.92 | 8.52 |  |
| COc1ccc(S(=O)(=O)N(CC(C)C)C[C@@H](O)[C@H](Cc2ccccc2)NC(=O)[C@@H](NC(=O)CN2CCCC2)C(C)(C)C)cc1 [Entry 5] | 8.30 | 8.52 |  |
| CC(C)CN(C[C@@H](O)[C@H](Cc1ccccc1)NC(=O)[C@H](CS(C)(=O)=O)NC(=O)CN1CCCC1)S(=O)(=O)c1ccc2c(c1)OCO2 [Entry 3] | 6.92 | 8.10 |  |
| CCC(C)[C@H](NC(=O)CN1CCCC1)C(=O)N[C@@H](Cc1ccccc1)[C@H](O)CN(CC(C)C)S(=O)(=O)c1ccc2c(c1)CCO2 (stereo partly shown) [Entry 2] |  |  | 8.70 |
| COC(=O)Nc1nc2cc(S(=O)(=O)N(CC(C)C)C[C@@H](O)[C@H](Cc3ccccc3)NC(=O)[C@@H](NC(=O)CN3CCCC3)C(C)(C)C)ccc2[nH]1 [Entry 7] | 7.54 | 8.70 |  |
| C#CC[C@H](NC(=O)CN1CCCC1)C(=O)N[C@@H](Cc1ccccc1)[C@H](O)CN(CC(C)C)S(=O)(=O)c1ccc2c(c1)OCO2 [Entry 12] | 7.96 | 8.70 |  |
| CC(C)CN(C[C@@H](O)[C@H](Cc1ccccc1)NC(=O)[C@@H](NC(=O)CN1CCCC1)C(C)(C)S(C)(=O)=O)S(=O)(=O)c1ccc2c(c1)OCO2 [Entry 10] | 7.41 | 8.40 |  |
| COc1ccc(S(=O)(=O)N(CC(C)C)C[C@@H](O)[C@H](Cc2ccccc2)NC(=O)[C@@H](NC(=O)CN2CCCC2)C(C)C)cc1 [Entry 13] | 7.74 | 8.52 |  |
| CC(C)CN(C[C@@H](O)[C@H](Cc1ccccc1)NC(=O)[C@@H](NC(=O)CN1CCCC1)C(C)(C)C)S(=O)(=O)c1ccc2c(c1)CCO2 [Entry 11] | 7.68 | 8.40 |  |
| CC(C)CN(C[C@@H](O)[C@H](Cc1ccccc1)NC(=O)[C@@H](NC(=O)CN1CCCC1)C(C)(C)C)S(=O)(=O)c1ccc2c(c1)OCO2 [Entry 1] | 8.15 | 8.52 |  |
| CC(C)CN(C[C@@H](O)[C@H](Cc1ccccc1)NC(=O)[C@@H](NC(=O)CN1CCCC1)C(C)(C)C)S(=O)(=O)c1ccc2ncsc2c1 [Entry 8] | 7.80 | 8.52 |  |
| CCC(C)[C@H](NC(=O)CN1CCCC1)C(=O)N[C@@H](Cc1ccccc1)[C@H](O)CN(CC(C)C)S(=O)(=O)c1ccccc1 (stereo partly shown) [Entry 1] |  |  | 8.40 |
| CCC(C)[C@H](NC(=O)CN1CCCC1)C(=O)N[C@@H](Cc1ccccc1)[C@H](O)CN(CC(C)C)S(=O)(=O)c1ccc(OC)cc1 (stereo partly shown) [Entry 9] | 7.80 | 8.52 |  |
